How the values were obtained:
Assay in all cases: relative viability (nuclei count vs DMSO), 5 days (fraction); higher = more cells survive
[1] = compound: C1=CC=C(C(=C1)C2=CC=C(C=C2)C3=CSC4=C3C(=C(C(=O)N4)C#N)O)O + CC(=O)c1c(C)c2cnc(Nc3ccc(N4CCNCC4)cn3)nc2n(C2CCCC2)c1=O [Palbociclib] (partner 0.5 µM)
Procedure, shortened: (§1)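 Cells from lung cancer lines were seeded into 1536-well plates and, one day later, dosed by pin tool. Treatments were either a single drug or a fixed dose of an anchor drug with five library-drug doses (not always all listed) in √10 steps. After 5 days, nuclei were stained in a one-step fixation (final 0.05% Triton X-100, 1% formaldehyde, 1 ug/ml Hoechst) and counted on 4× images, and relative viability is the treated-to-vehicle nuclei ratio, as the median of duplicate plates.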

TGX 221 + OSI-027 = compound: CC1=CN2C(=O)C=C(N=C2C(=C1)C(C)NC3=CC=CC=C3)N4CCOCC4 [TGX 221] + COc1cccc2cc(-c3nc([C@H]4CC[C@H](C(=O)O)CC4)n4ncnc(N)c34)[nH]c12 [OSI-027] (partner 0.5 µM)
Procedure, shortened: as §1

[2] = compound: C1=CC=C(C(=C1)C2=CC=C(C=C2)C3=CSC4=C3C(=C(C(=O)N4)C#N)O)O + Cc1nc(Nc2ncc(C(=O)Nc3c(C)cccc3Cl)s2)cc(N2CCN(CCO)CC2)n1 [Dasatinib] (partner 0.075 µM)
Procedure, shortened: as §1

TGX 221 + AZD7762 = compound: CC1=CN2C(=O)C=C(N=C2C(=C1)C(C)NC3=CC=CC=C3)N4CCOCC4 [TGX 221] + NC(=O)Nc1cc(-c2cccc(F)c2)sc1C(=O)N[C@H]1CCCNC1 [AZD7762] (partner 0.2 µM)
Procedure, shortened: as §1

Cell Line | relative viability ([1]; first compound 0.08 µM) | relative viability ([1]; first compound 0.253 µM) | relative viability ([1]; first compound 0.8 µM) | relative viability ([1]; first compound 2.53 µM) | relative viability ([1]; first compound 8 µM) | relative viability (TGX 221 + OSI-027; first compound 0.08 µM) | relative viability (TGX 221 + OSI-027; first compound 0.253 µM) | relative viability (TGX 221 + OSI-027; first compound 0.8 µM) | relative viability (TGX 221 + OSI-027; first compound 2.53 µM) | relative viability (TGX 221 + OSI-027; first compound 8 µM) | relative viability ([2]; first compound 0.08 µM) | relative viability ([2]; first compound 0.253 µM) | relative viability ([2]; first compound 0.8 µM) | relative viability ([2]; first compound 2.53 µM) | relative viability ([2]; first compound 8 µM) | relative viability (TGX 221 + AZD7762; first compound 0.08 µM) | relative viability (TGX 221 + AZD7762; first compound 0.253 µM) | relative viability (TGX 221 + AZD7762; first compound 0.8 µM) | relative viability (TGX 221 + AZD7762; first compound 2.53 µM) | relative viability (TGX 221 + AZD7762; first compound 8 µM)
NCI-H1437 | 0.277 | 0.361 | 0.324 | 0.326 | 0.27 | 0.878 | 0.899 | 0.809 | 0.848 | 0.728 | 0.32 | 0.363 | 0.344 | 0.456 | 0.371 | 1.11 | 1.12 | 1.11 | 1.07 | 1.01
EKVX | 0.312 | 0.365 | 0.512 | 0.793 | 0.334 | 0.697 | 0.708 | 0.698 | 0.687 | 0.672 | 0.47 | 0.724 | 0.671 | 0.621 | 0.403 | 0.685 | 0.607 | 0.601 | 0.579 | 0.594
HARA | 0.228 | 0.211 | 0.218 | 0.234 | 0.279 | 0.447 | 0.493 | 0.526 | 0.501 | 0.471 | 0.241 | 0.228 | 0.346 | 0.292 | 0.192 | 0.464 | 0.38 | 0.513 | 0.519 | 0.274
ChaGo-K-1 | 0.839 | 0.913 | 1.01 | 1.01 | 0.836 | 0.529 | 0.547 | 0.581 | 0.474 | 0.64 | 0.48 | 0.614 | 0.661 | 0.595 | 0.542 | 0.922 | 0.826 | 0.873 | 0.827 | 0.838
HCC-366 |  | 0.371 | 0.357 | 0.509 | 0.395 | 0.865 | 0.832 | 0.922 | 0.567 | 0.755 | 0.505 | 0.844 | 0.64 | 0.737 | 0.353 | 0.325 | 0.202 | 0.242 | 0.0941 | 0.146
SW 900 |  | 0.621 | 0.638 | 0.518 | 0.429 | 0.609 | 0.482 | 0.449 | 0.429 | 0.713 | 0.596 | 0.937 | 0.594 | 0.361 | 0.531 |  | 0.598 | 0.515 | 0.444 | 0.469
HCC-827 | 0.492 | 0.518 | 0.479 | 0.475 | 0.524 | 0.735 | 0.761 | 0.799 | 0.727 | 0.78 | 0.315 | 0.469 | 0.313 | 0.403 | 0.224 | 0.197 | 0.269 | 0.233 | 0.201 | 0.148
EMC-BAC-2 | 0.523 | 0.595 | 0.507 | 0.539 | 0.51 | 0.376 | 0.443 | 0.348 | 0.359 | 0.366 | 0.35 | 0.332 | 0.306 | 0.283 | 0.316 | 1.06 | 1.05 | 1.13 | 1.07 | 0.992
NCI-H1993 | 0.702 | 0.674 | 0.716 | 0.631 | 0.607 | 0.504 | 0.575 | 0.579 | 0.559 | 0.533 | 0.619 | 0.701 | 0.596 | 0.544 | 0.549 | 0.676 | 0.657 | 0.685 | 0.899 | 0.785
NCI-H522 | 0.943 | 1.06 | 0.916 | 0.944 | 0.881 | 0.606 | 0.739 | 0.704 | 0.789 | 0.641 | 0.849 | 0.761 | 0.957 | 0.829 | 0.837 | 0.771 | 0.81 | 0.888 | 0.871 | 0.904
LK-2 | 0.515 | 0.749 | 0.629 | 0.913 | 0.517 | 0.212 | 0.246 | 0.216 | 0.225 | 0.237 |  | 0.269 | 0.276 | 0.28 | 0.253 | 0.377 | 0.434 | 0.436 | 0.395 | 0.521
NCI-H650 | 0.305 | 0.357 | 0.329 | 0.273 | 0.344 | 0.519 | 0.515 | 0.445 | 0.527 | 0.504 | 0.45 | 0.449 | 0.428 | 0.474 | 0.428 | 0.769 | 0.902 | 0.926 | 1.12 | 0.904
ABC-1 | 0.615 | 0.921 | 0.804 | 0.591 | 0.433 | 0.518 | 0.505 | 0.593 | 0.432 | 0.406 | 0.526 | 0.65 | 0.559 | 0.542 | 0.432 | 0.859 | 0.908 | 0.743 | 0.749 | 1.08
NCI-H322M | 0.461 | 0.468 | 0.467 | 0.483 | 0.49 | 0.541 | 0.515 | 0.551 | 0.507 | 0.567 | 0.245 | 0.244 | 0.234 | 0.243 | 0.273 | 0.578 | 0.569 | 0.636 | 0.571 | 0.546
HCC-78 | 0.463 | 0.477 | 0.45 | 0.602 | 0.413 | 0.295 | 0.385 | 0.33 | 0.306 | 0.326 | 0.354 | 0.388 | 0.327 | 0.363 | 0.239 | 0.483 | 0.697 | 0.55 | 0.545 | 0.507
NCI-H1395 |  | 0.706 | 0.593 | 0.611 | 0.657 | 0.542 | 0.525 | 0.61 | 0.475 | 0.544 | 0.382 | 0.368 | 0.45 | 0.381 | 0.421 | 0.398 | 0.383 | 0.385 | 0.413 | 0.39
